Source: patent publication US20250304620A1, “ANTIMICROBIAL PEPTIDE AND APPLICATION THEREOF” (priority 2023, published 2025)
Where two headings read alike, the source gives them in different places. Marks after values point to notes of the source that are not given here. Non-standard residues stand in square brackets, D forms with d. PEG2000 = polyethylene glycol 2000, conjugated to the N-terminus; PEG4000 = polyethylene glycol 4000, conjugated to the C-terminus; 2Nal = N[C@@H](Cc1ccc2ccccc2c1)C(=O)O

How the values were obtained:
[1] = system: Staphylococcus aureus (NRS 384); test: microbe, parasite or virus in culture; assay type: cell-based; conditions: Staphylococcus aureus (NRS 384)
In short: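 MICs were read against S. aureus strain NRS 384 using twofold serial dilution by CLSI microdilution rules. Levofloxacin and Cbf-K16 were the reference controls, and the test was repeated 5 times in parallel.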

[2] = system: Shigella flexneri ATCC 12022; test: MIC against clinically common bacterial strain; assay type: cell-based
In short: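 Five parallel repeats; twofold dilution series of each peptide per US CLSI susceptibility protocol; endpoint = MIC.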

[3] = system: Methicillin-resistant Staphylococcus aureus (MRSA); assay type: in vivo, ICR mice; conditions: 0.1 mL twice a day for 4 days, mouse back skin infection
Method: (§1) Both female and male ICR mice were used in the test, half of the female and male mice were taken and randomly assigned into groups, with 10 mice in each group, and kept in separate cages. The mice were divided into a blank group, a model group, a positive control Methicillin group, and topical formulation groups of AMPs LV-1 to LV-30. Suspensions of Methicillin-sensitive Staphylococcus aureus (NRS 384) and Methicillin-resistant Staphylococcus aureus (MRSA) were prepared, and their concentrations were adjusted to a concentration of 5×10^6 CFU/mL for subsequent use. Hair on backs of the mice was shaved with a shaver, wound was created on back skin of each mouse using a biopsy punch, and the wound was then infected with Methicillin-sensitive Staphylococcus aureus and Methicillin-resistant Staphylococcus aureus (0.1 mL, 5×10^6 CFU/mL) to establish infection models. Except for the blank group and the model group, all other groups received corresponding topical formulations applied directly to the infected areas, with a dose of 0.1 mL, twice a day for 4 consecutive days. On the day following the final administration, skin from the infected sites of each group was aseptically collected, and an antibacterial rate was calculated.

[4] = system: Methicillin-sensitive Staphylococcus aureus (NRS 384); assay type: in vivo, ICR mice; conditions: 0.1 mL twice a day for 4 days, mouse back skin infection
Method: as §1

[5] = system: Escherichia coli ATCC 25922; test: Oral formulations on mice with systemic bacterial infection; assay type: in vivo, ICR mice; conditions: 1 mg/kg gavage, three times a day for 7 days, n = 10; for Average survival times (Days): observed for 14 d
In short: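 Survival time and deaths were logged over a 14 d observation after oral gavage dosing (by body weight, thrice daily, 7 days, starting right after infection). Model: mixed-sex ICR mice, n=10 per group, intraperitoneal injection of E. coli ATCC 25922 suspension (0.2 mL, 1×10^7 CFU/mL).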

Substance	MIC against Staphylococcus aureus (NRS 384) [1] [µg/mL]	MIC Shigella flexneri ATCC 12022 [2] [µg/mL]	Inhibition rate against Methicillin-resistant Staphylococcus aureus (%) ([3]; topical formulation 0.2 mg/mL)	Inhibition rate against Methicillin-resistant Staphylococcus aureus (%) ([3]; topical formulation 1 mg/mL)	Inhibition rate against Methicillin-resistant Staphylococcus aureus (%) ([3]; topical formulation 5 mg/mL)	Inhibition rate against Methicillin-sensitive Staphylococcus aureus (%) ([4]; topical formulation 0.2 mg/mL)	Inhibition rate against Methicillin-sensitive Staphylococcus aureus (%) ([4]; topical formulation 1 mg/mL)	Inhibition rate against Methicillin-sensitive Staphylococcus aureus (%) ([4]; topical formulation 5 mg/mL)	Number of mice that died on each day after infection: day 4 [5] [Mouse]	Number of mice that died on each day after infection: day 5 [5] [Mouse]	Number of mice that died on each day after infection: day 6 [5] [Mouse]	Number of mice that died on each day after infection: day 7 [5] [Mouse]	Number of mice that died on each day after infection: day 8 [5] [Mouse]	Average survival times (Days) [5]
Ac-RKLLXRLKXRK-PEG4000 [LV-30] (Ac-RKLL[2Nal]RLK[2Nal]RK-PEG4000) [polyethylene glycol 4000 conjugated to C-terminal; X=3-(2-naphthyl)-alanine]	1	2	86.10	87.85	88.93	96.07	96.91	98.24	1	1	3	0	1	9.1** Days
PEG2000-RKLLXRLKXRK-NH2 [LV-29] (PEG2000-RKLL[2Nal]RLK[2Nal]RK-NH2) [polyethylene glycol 2000 conjugated to N-terminal; X=3-(2-naphthyl)-alanine]	1	4	86.34	87.29	88.16	96.49	97.11	98.65	0	1	2	1	1	10.2*** Days
